Tests used:
[1] = tested on: B. subtilis 168; test: fitness (endpoint OD595 vs no drug) (fraction); higher = more growth
How it was run: (§1)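 Growth medium was TSB, LB Lennox or CY, and plates were kept at 37 °C. Inoculation was at OD595 0.01 in 384-well plates, at 30 µl per well or 55 µl for S. pneumoniae. OD595 was monitored every 30 min for 14 h and background-subtracted using the first reading. Fitness is the optical density on entering stationary phase divided by the robust mean of no-drug controls, with values capped at 1.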

[2] = tested on: S. pneumoniae D39V; test: as above
How it was run: as §1

[3] = tested on: B. subtilis 168; test: Bliss interaction score (quartile over a dose matrix) (fitness difference); higher = more antagonism (negative = synergy)
How it was run: (§2)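 Fitness was OD595 at entry into stationary phase divided by the plate's robust no-drug mean and capped at 1; single-drug fitness was inferred from combination data. The Bliss score is observed minus expected (product) fitness, summarised by quartiles over technical, biological and donor/recipient replicates.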

[4] = tested on: S. aureus DSM 20231; test: as above
How it was run: as §2

[5] = tested on: S. aureus Newman; test: as above
How it was run: as §2

[6] = tested on: S. pneumoniae D39V; test: as above
How it was run: as §2
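For Bliss interaction score (quartile over a dose matrix) in this document: first quartile when negative (synergy) and third quartile when positive (antagonism).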

C[C@H]1c2cccc(O)c2C(=O)C2=C(O)[C@]3(O)C(=O)C(C(N)=O)=C(O)[C@@H](N(C)C)[C@@H]3[C@@H](O)[C@@H]21 [Doxycycline] + C[n+]1ccc(-c2cc[n+](C)cc2)cc1 [Paraquat]
Settings | fitness
[1], first compound 0.02 µg/mL, partner 1.25 µg/mL | 0.905
[1], first compound 0.02 µg/mL, partner 2.5 µg/mL | 0.86
[1], first compound 0.02 µg/mL, partner 5 µg/mL | 0.885
[1], first compound 0.04 µg/mL, partner 1.25 µg/mL | 0.828
[1], first compound 0.04 µg/mL, partner 2.5 µg/mL | 0.839
[1], first compound 0.04 µg/mL, partner 5 µg/mL | 0.772
[1], first compound 0.08 µg/mL, partner 1.25 µg/mL | 0.568
[2], first compound 0.0155 µg/mL, partner 1.5 µg/mL | 0.979
[2], first compound 0.0155 µg/mL, partner 3 µg/mL | 0.975
[2], first compound 0.0155 µg/mL, partner 6 µg/mL | 0.978
[2], first compound 0.031 µg/mL, partner 1.5 µg/mL | 0.923
[2], first compound 0.031 µg/mL, partner 3 µg/mL | 0.877
[2], first compound 0.031 µg/mL, partner 6 µg/mL | 0.898
[2], first compound 0.062 µg/mL, partner 1.5 µg/mL | 0.845
[2], first compound 0.062 µg/mL, partner 3 µg/mL | 0.841
[2], first compound 0.062 µg/mL, partner 6 µg/mL | 0.806

fitness, [2], one replicate
Settings | partner 1.5 µg/mL | partner 3 µg/mL | partner 6 µg/mL
first compound 0.003875 µg/mL | ≥ 1 | ≥ 1 | ≥ 1
first compound 0.00775 µg/mL | ≥ 1 | 0.962 | 0.986

Settings | Bliss interaction score
[3] | 0.0932
[4] | 0.0382
[5] | -0.019
[6] | 0.036

C[C@H]1c2cccc(O)c2C(=O)C2=C(O)[C@]3(O)C(=O)C(C(N)=O)=C(O)[C@@H](N(C)C)[C@@H]3[C@@H](O)[C@@H]21 [Doxycycline] + Cc1cc(NS(=O)(=O)c2ccc(N)cc2)no1 [Sulfamethoxazol]
one replicate
Settings | fitness
[1], first compound 0.02 µg/mL, partner 0.5 µg/mL | 0.829
[1], first compound 0.04 µg/mL, partner 0.5 µg/mL | 0.72
[1], first compound 0.08 µg/mL, partner 0.5 µg/mL | 0.456
[2], first compound 0.003875 µg/mL, partner 1 µg/mL | ≥ 1
[2], first compound 0.003875 µg/mL, partner 2 µg/mL | ≥ 1
[2], first compound 0.003875 µg/mL, partner 4 µg/mL | ≥ 1
[2], first compound 0.00775 µg/mL, partner 1 µg/mL | 0.961
[2], first compound 0.00775 µg/mL, partner 2 µg/mL | 0.967
[2], first compound 0.00775 µg/mL, partner 4 µg/mL | 0.963

fitness
Settings | first compound 0.0155 µg/mL | first compound 0.02 µg/mL | first compound 0.031 µg/mL | first compound 0.04 µg/mL | first compound 0.062 µg/mL | first compound 0.08 µg/mL
[1], partner 1 µg/mL | – | 0.856 | – | 0.718 | – | 0.485
[1], partner 2 µg/mL | – | 0.818 | – | 0.702 | – | 0.424
[1], partner 4 µg/mL | – | 0.876 | – | 0.76 | – | 0.528
[2], partner 1 µg/mL | 0.929 | – | 0.848 | – | 0.755 | –
[2], partner 2 µg/mL | 0.939 | – | 0.859 | – | 0.779 | –
[2], partner 4 µg/mL | 0.897 | – | 0.81 | – | 0.77 | –

Settings | Bliss interaction score
[3] | -0.0451
[4] | -0.0457
[5] | -0.0242
[6] | -0.0349

C[C@H]1c2cccc(O)c2C(=O)C2=C(O)[C@]3(O)C(=O)C(C(N)=O)=C(O)[C@@H](N(C)C)[C@@H]3[C@@H](O)[C@@H]21 [Doxycycline] + Cc1ncc([N+](=O)[O-])n1CCO [Metronidazole]
fitness
Settings | partner 0.625 µg/mL | partner 1.073 µg/mL | partner 1.25 µg/mL | partner 2.145 µg/mL | partner 2.5 µg/mL | partner 4.29 µg/mL | partner 5 µg/mL
[1], first compound 0.02 µg/mL | 0.914 | – | 0.899 | – | 0.933 | – | –
[1], first compound 0.04 µg/mL | 0.774 | – | 0.835 | – | 0.844 | – | –
[1], first compound 0.08 µg/mL | 0.701 | – | 0.682 | – | 0.61 | – | –
[2], first compound 0.0155 µg/mL | – | 0.873 | 0.994 | 0.851 | ≥ 1 | 0.809 | 0.968
[2], first compound 0.031 µg/mL | – | 0.889 | – | 0.853 | – | 0.835 | –
[2], first compound 0.062 µg/mL | – | 0.838 | – | 0.865 | – | 0.829 | –

fitness, [2], one replicate
Settings | first compound 0.003875 µg/mL | first compound 0.00775 µg/mL | first compound 0.031 µg/mL | first compound 0.062 µg/mL
partner 1.25 µg/mL | ≥ 1 | ≥ 1 | 0.938 | 0.775
partner 2.5 µg/mL | ≥ 1 | ≥ 1 | 0.91 | 0.794
partner 5 µg/mL | ≥ 1 | ≥ 1 | 0.892 | 0.757

Settings | Bliss interaction score
[3] | 0.0635
[4] | 0.0684
[5] | 0.0262
[6] | 0.0539

C[C@H]1c2cccc(O)c2C(=O)C2=C(O)[C@]3(O)C(=O)C(C(N)=O)=C(O)[C@@H](N(C)C)[C@@H]3[C@@H](O)[C@@H]21 [Doxycycline] + Cc1onc(-c2ccccc2)c1C(=O)N[C@@H]1C(=O)N2[C@@H]1SC(C)(C)[C@@H]2C(=O)O [Oxacillin]
Settings | fitness
[1], first compound 0.02 µg/mL, partner 0.002 µg/mL | 0.885
[1], first compound 0.02 µg/mL, partner 0.004 µg/mL | 0.933
[1], first compound 0.02 µg/mL, partner 0.008 µg/mL | 0.882
[1], first compound 0.04 µg/mL, partner 0.002 µg/mL | 0.762
[1], first compound 0.04 µg/mL, partner 0.004 µg/mL | 0.771
[1], first compound 0.04 µg/mL, partner 0.008 µg/mL | 0.716
[1], first compound 0.08 µg/mL, partner 0.002 µg/mL | 0.419
[1], first compound 0.08 µg/mL, partner 0.004 µg/mL | 0.422
[1], first compound 0.08 µg/mL, partner 0.008 µg/mL | 0.372
[2], first compound 0.0155 µg/mL, partner 0.01 µg/mL | 0.957
[2], first compound 0.0155 µg/mL, partner 0.02 µg/mL | 0.921
[2], first compound 0.031 µg/mL, partner 0.01 µg/mL | 0.917
[2], first compound 0.031 µg/mL, partner 0.02 µg/mL | 0.885
[2], first compound 0.062 µg/mL, partner 0.01 µg/mL | 0.859
[2], first compound 0.062 µg/mL, partner 0.02 µg/mL | 0.801
[2], first compound 0.062 µg/mL, partner 0.04 µg/mL | 0.71

fitness, one replicate
Settings | partner 0.0078 µg/mL | partner 0.01 µg/mL | partner 0.0155 µg/mL | partner 0.02 µg/mL | partner 0.031 µg/mL | partner 0.04 µg/mL | partner 0.075 µg/mL | partner 0.15 µg/mL | partner 0.3 µg/mL
[1], first compound 0.02 µg/mL | ≥ 1 | – | ≥ 1 | – | ≥ 1 | – | 0.661 | 0.0438 | 0.0604
[1], first compound 0.04 µg/mL | 0.858 | – | 0.843 | – | 0.843 | – | 0.576 | 0.025 | 0.0223
[1], first compound 0.08 µg/mL | 0.721 | – | 0.742 | – | 0.716 | – | 0.102 | 0.0327 | 0.0213
[2], first compound 0.003875 µg/mL | – | ≥ 1 | – | 0.978 | – | 0.357 | – | – | –
[2], first compound 0.00775 µg/mL | – | ≥ 1 | – | 0.959 | – | 0.571 | – | – | –

Settings | Bliss interaction score
[3] | 0.0493
[4] | 0.0402
[5] | -0.0136
[6] | 0.159
